The values that follow are results of earlier work, collected in publication PMC6311893, “Computational prediction of plasma protein binding of cyclic peptides from small molecule experimental data using sparse modeling techniques” (BMC Bioinformatics, 2018).

Like-named read-outs stand apart in the source and are kept apart here.

In this data set the test system is plasma protein. The following applies: cited from earlier work.
Setting [1] is: fraction bound to plasma protein, small molecule dataset, sheet 1-SM, ref Ingle et al.
Setting [2] is: fraction bound to plasma protein, small molecule dataset, sheet 1-SM, Set Dtr, ref Ingle et al.
Where [3] appears, read: fraction bound to plasma protein, small molecule dataset, sheet 1-SM (Set Dte = test, Dtr = training), ref Ingle et al.

As for `CCC1(c2cccc(O)c2)CCCCN(C)C1` (centres unmarked) [Meptazinol], the “PPB (fb)” value (plasma) was 0.27.

As to `Nc1ccc(O)c(C(=O)O)c1` [mesalamine], under setting [1], the “PPB (fb)” value is 0.45. With `CN1C(=O)CC(C)(c2ccccc2)C1=O` (centres unmarked) [mesuximide], the “PPB (fb)” value under setting [1] is given as 0. As for `CC(NCCc1ccc(O)cc1)C(O)c1ccc(O)cc1` (centres unmarked) [Ritodrine], the “PPB (fb)” value under setting [1] is reported as 0.33. Regarding `CC(C)(C)NC[C@H](O)COc1ccccc1C1CCCC1` [penbutolol], the “PPB (fb)” value under setting [1] is reported as 0.95.

In the case of `N[C@@H](C(=O)N[C@@H]1C(=O)N2C(C(=O)O)=C(CSc3c[nH]nn3)CS[C@H]12)c1ccc(O)cc1` [Cefatrizine], the “PPB (fb)” value under setting [2] is on record as 0.59. Consider `CC(C)(Oc1ccc(C2CC2(Cl)Cl)cc1)C(=O)O` (centres unmarked) [ciprofibrate], for which, under setting [3], the “PPB (fb)” value was 0.95.

In the case of `CN(CCOc1ccc(CC2SC(=O)NC2=O)cc1)c1ccccn1` (centres unmarked) [Rosiglitazone], under setting [1], the “PPB (fb)” value is reported as 0.99. For `CN/C(=N/CCSCc1nc[nH]c1C)NC#N` [Cimetidine], the “PPB (fb)” value under setting [2] was 0.2. On to `CC(C)(C)c1ccc(C(=O)CCCN2CCC(OC(c3ccccc3)c3ccccc3)CC2)cc1` [ebastine], for which the “PPB (fb)” value under setting [3] is on record as 0.98. `CC(C)(Oc1ccccc1)C(=O)NC1C(=O)N2C1SC(C)(C)C2C(=O)O` (centres unmarked) [penicillin49]: the “PPB (fb)” value under setting [1] was 0.92. On to `O=C(O)CCCc1ccc(N(CCCl)CCCl)cc1` [Chlorambucil], for which the “PPB (fb)” value (plasma) is on record as 0.99. For `CS(=O)(=O)c1ccc([C@@H](O)[C@@H](CF)NC(=O)C(Cl)Cl)cc1` [florfenicol], the “PPB (fb)” value under setting [1] was 0.12. As for `Cc1cc2c(OCC(CNC(C)(C)C)OC(=O)c3ccccc3)cccc2[nH]1` (centres unmarked) [bopindolol], the “PPB (fb)” value under setting [3] was 0.65. Regarding `CS(=O)(=O)c1ccc(C2=C(c3ccccc3)C(=O)OC2)cc1` [rofecoxib], the “PPB (fb)” value under setting [1] is given as 0.87. Consider `Nc1ccc(S(=O)(=O)Nc2ccc(Cl)nn2)cc1` [sulfachlorpyridazine], for which the “PPB (fb)” value under setting [1] is 0.97. On to `CC(=O)OCC1=C(C(=O)O)N2C(=O)[C@@H](NC(=O)Cc3cccs3)[C@H]2SC1` [Cephalothin], for which the “PPB (fb)” value under setting [2] is recorded as 0.73. Turning to `CCCC(=O)Nc1ccc(OCC(O)CNC(C)C)c(C(C)=O)c1` (centres unmarked) [Acebutolol], the “PPB (fb)” value under setting [2] was 0.24.

With `CC1(C)O[C@@H]2C[C@H]3[C@@H]4CCC5=CC(=O)C=C[C@]5(C)[C@@]4(F)[C@@H](O)C[C@]3(C)[C@]2(C(=O)CO)O1` [Triamcinolone Acetonide], the “PPB (fb)” value under setting [1] is recorded as 0.8.

In the case of Cefmetazole, the “PPB (fb)” value (plasma) is 0.77. For `CCCCCOC(=O)Nc1nc(=O)n([C@@H]2O[C@H](C)[C@@H](O)[C@H]2O)cc1F` [capecitabine], under setting [3], the “PPB (fb)” value is 0.3. For `CN1C(=O)CC(c2ccccc2)C1=O` (centres unmarked) [phensuximide], the “PPB (fb)” value under setting [1] is reported as 0.07. As to `CC(COc1ccccc1)NC(C)C(O)c1ccc(O)cc1` (centres unmarked) [isoxsuprine], the “PPB (fb)” value under setting [1] is on record as 0. With `COC(C(=O)NC1C(=O)N2C1SC(C)(C)C2C(=O)O)c1cccc(Br)c1` (centres unmarked) [penicillin39], under setting [1], the “PPB (fb)” value is given as 0.88.

Turning to `COC(CC(=O)NC1C(=O)N2C1SC(C)(C)C2C(=O)O)c1ccc(Br)s1` (centres unmarked) [penicillin74], the “PPB (fb)” value under setting [1] is recorded as 0.9.

On to `Cc1oncc1C(=O)Nc1ccc(C(F)(F)F)cc1` [leflunomide], for which the “PPB (fb)” value under setting [1] is recorded as 0.99. Turning to `CO[C@@]1(NC(=O)C(C(=O)O)c2ccc(O)cc2)C(=O)N2C(C(=O)O)=C(CSc3nnnn3C)CO[C@@H]21` (some centres unmarked) [Moxalactam], the “PPB (fb)” value under setting [2] is given as 0.53. Regarding `CCOC(=O)Nc1ccc2c(c1)N(C(=O)CCN1CCOCC1)c1ccccc1S2` [moracizine], the “PPB (fb)” value under setting [1] is on record as 0.88.

For `CC1CCCC(C)N1CCCC(O)(c1ccccc1)c1ccccn1` (centres unmarked) [Pirmenol], the “PPB (fb)” value under setting [2] is 0.87. For the molecule `CC1(C)SC2C(NC(=O)C(F)c3cccc(N)c3)C(=O)N2C1C(=O)O` (centres unmarked) [penicillin30], the “PPB (fb)” value under setting [3] was 0.26. `CC(C)NCC(O)COc1ccc(CCOCC2CC2)cc1` (centres unmarked) [Betaxolol]: the “PPB (fb)” value under setting [2] was 0.56.

Turning to `C[C@]12CCC(=O)C=C1C=C[C@@H]1[C@@H]2CC[C@@]2(C)[C@H]1CC[C@@]2(O)CCC(=O)O` [canrenoate], the “PPB (fb)” value under setting [3] is 0.94. As for `CN1C(=O)NC(=O)C(C)(C2=CCCCC2)C1=O` (centres unmarked) [Hexobarbital], the “PPB (fb)” value (plasma) was 0.47. In the case of `O=C1CN=C(c2ccccc2)c2cc([N+](=O)[O-])ccc2N1` [Nitrazepam], the “PPB (fb)” value (plasma) was 0.87. With Nisoldipine, the “PPB (fb)” value (plasma) was 1. As for `CO[C@H]1[C@@H](O)C[C@H](O[C@H]2[C@@H](O)C[C@H](O[C@H]3[C@@H](O)C[C@H](O[C@H]4CC[C@@]5(C)[C@H](CC[C@@H]6[C@@H]5C[C@@H](O)[C@]5(C)[C@@H](C7=CC(=O)OC7)CC[C@]65O)C4)O[C@@H]3C)O[C@@H]2C)O[C@@H]1C` [metildigoxin], under “plasma”, the “PPB (fb)” value is reported as 0.15. Regarding `C[C@@H](CN1CC(=O)NC(=O)C1)N1CC(=O)NC(=O)C1` [Dexrazoxane], under setting [2], the “PPB (fb)” value is 0.01. For `COCC(=O)O[C@]1(CCN(C)CCCc2nc3ccccc3[nH]2)CCc2cc(F)ccc2[C@@H]1C(C)C` [Mibefradil], the “PPB (fb)” value under setting [3] is listed as 0.99. Consider `COc1ccc2c(C(=S)N(C)CC(=O)O)cccc2c1C(F)(F)F` [tolrestat], for which the “PPB (fb)” value under setting [2] is 0.99. For `CC(=O)NCCCS(=O)(=O)O` [acamprosate], the “PPB (fb)” value (plasma) was 0.03. As for `CCCCC(OCC)C(=O)NC1C(=O)N2C1SC(C)(C)C2C(=O)O` (centres unmarked) [penicillin10], the “PPB (fb)” value under setting [1] is recorded as 0.74. For the molecule `C=CCN1CC[C@]23c4c5ccc(O)c4O[C@H]2C(=O)CC[C@@]3(O)[C@H]1C5` [Naloxone], the “PPB (fb)” value under setting [2] is listed as 0.45. `CC(C)Cc1ccc(C(C)C(=O)NCCCN(C)C)cc1` (centres unmarked) [JMC_07]: the “PPB (fb)” value under setting [1] is reported as 0.75.

Consider `COC(=O)Nc1nc2ccccc2[nH]1` [carbendazim], for which the “PPB (fb)” value (plasma) is 0.67. `OC[C@H]1O[C@@H](n2cnc3c2NC=NC[C@H]3O)C[C@@H]1O` [pentostatin]: the “PPB (fb)” value under setting [1] is reported as 0.03. For `C=C[C@H]1C[N@@]2CC[C@H]1C[C@H]2[C@H](O)c1ccnc2ccc(OC)cc12` [Quinine], the “PPB (fb)” value under setting [2] is reported as 0.81.

As for `NC(=O)N1c2ccccc2CC(O)c2ccccc21` (centres unmarked) [10-hydroxycarbazepine], the “PPB (fb)” value under setting [3] is given as 0.62. With `CN1C(=O)CN=C(c2ccccc2F)c2cc([N+](=O)[O-])ccc21` [Flunitrazepam], the “PPB (fb)” value (plasma) is reported as 0.81.

In the case of `CN[C@@H](C)[C@@H](O)c1ccccc1` [pseudoephedrine], the “PPB (fb)” value (plasma) is listed as 0. For Atovaquone, the “PPB (fb)” value (plasma) is reported as 1.

On to `CN1CC(=O)N2[C@H](c3ccc4c(c3)OCO4)c3[nH]c4ccccc4c3C[C@@H]2C1=O` [tadalafil], for which, under setting [1], the “PPB (fb)” value is 0.94. Consider `CCOC(=O)[C@H](CCc1ccccc1)N[C@@H](C)C(=O)N1CCC[C@H]1C(=O)O` [enalapril], for which the “PPB (fb)” value under setting [1] was 0.55.

Regarding `CCOc1cc(CC(=O)N[C@@H](CC(C)C)c2ccccc2N2CCCCC2)ccc1C(=O)O` [Repaglinide], the “PPB (fb)” value under setting [1] is reported as 0.98. `N[C@@H](CC(=O)N1CCn2c(nnc2C(F)(F)F)C1)Cc1cc(F)c(F)cc1F` [Sitagliptin]: the “PPB (fb)” value under setting [1] was 0.38. Take `O=C1c2ccccc2C(=O)C1c1ccccc1` [phenindione]: the “PPB (fb)” value under setting [1] is 0.97.

As to `COc1cccc(-n2cc(C(=O)O)c(=O)c3cc(F)c(N4CCNCC4)cc32)c1` [5b(m-OCH3)], the “PPB (fb)” value under setting [3] is 0.35. For the molecule `CCN(CC)CCNC(=O)c1cc(Br)c(N)cc1OC` [Bromopride], the “PPB (fb)” value under setting [3] was 0.4.

Turning to `C=CC(N)CCC(=O)O` (centres unmarked) [vigabatrin], under setting [2], the “PPB (fb)” value was 0.

Turning to `CCCCC1(CC)C(=O)NC(=O)NC1=O` [butobarbital], the “PPB (fb)” value (plasma) is recorded as 0.26. For `C[C@H]1O[C@@H](n2cc(F)c(=O)[nH]c2=O)[C@H](O)[C@@H]1O` [Doxifluridine], the “PPB (fb)” value under setting [2] is listed as 0.39. For `Cc1ccccc1OCC(O)CNCCOc1ccc(C(N)=O)cc1` (centres unmarked) [Tolamolol], the “PPB (fb)” value under setting [1] is 0.91. On to `CC(C(=O)O)c1ccc2c(c1)[nH]c1ccc(Cl)cc12` (centres unmarked) [Carprofen], for which, under setting [3], the “PPB (fb)” value was 0.99. As for `C[C@]12CC[C@H]3[C@@H](CCC4=CC(=O)CC[C@@]43C)[C@@H]1CC[C@@H]2O` [Testosterone], the “PPB (fb)” value (plasma) was 0.6. Consider `CC1(C)[C@@H](OC(=O)CCC(=O)O)CC[C@]2(C)[C@H]3C(=O)C=C4[C@@H]5C[C@@](C)(C(=O)O)CC[C@]5(C)CC[C@@]4(C)[C@]3(C)CC[C@@H]12` [carbenoxolone], for which, under setting [3], the “PPB (fb)” value is 0.99. For `CC1(C)SC2C(NC(=O)C(N)c3cccc(N)c3)C(=O)N2C1C(=O)O` (centres unmarked) [penicillin31], under setting [1], the “PPB (fb)” value is listed as 0.12. Turning to `Nc1ccc(S(=O)(=O)Nc2nccs2)cc1` [sulfathiazole], the “PPB (fb)” value under setting [1] was 0.67. `CN1C(=O)CCS(=O)(=O)C1c1ccc(Cl)cc1` (centres unmarked) [chlormezanone]: under “plasma”, the “PPB (fb)” value is 0.5. On to `CC(C(=O)O)c1ccc(-c2ccccc2)c(F)c1` (centres unmarked) [flurbiprofen], for which, under setting [1], the “PPB (fb)” value is reported as 0.99.

Regarding `CCN(C(C)=O)c1cccc(-c2ccnc3c(C#N)cnn23)c1` [Zaleplon], the “PPB (fb)” value (plasma) was 0.6. On to `CC1(C)SC2C(NC(=O)Cc3cccs3)C(=O)N2C1C(=O)O` (centres unmarked) [penicillin71], for which the “PPB (fb)” value (plasma) is on record as 0.58. As to `NC[C@H]1CC[C@H](C(=O)O)CC1` [tranexamic acid], the “PPB (fb)” value under setting [2] was 0.03. As to `COc1cc2c(cc1OC)[C@@H](Cc1cc(OC)c(OC)c(OC)c1)[N+](C)(CCCOC(=O)CC/C=C/CCC(=O)OCCC[N+]1(C)CCc3cc(OC)c(OC)cc3[C@H]1Cc1cc(OC)c(OC)c(OC)c1)CC2` (some centres unmarked) [Mivacurium], the “PPB (fb)” value under setting [2] is recorded as 0.3.

Take `COc1ccc(C(=O)Nc2ccccc2CCC2CCCCN2C)cc1` (centres unmarked) [Encainide]: under setting [2], the “PPB (fb)” value was 0.72. Regarding `c1ccc(CC2=NCCN2)cc1` [tolazoline], under setting [2], the “PPB (fb)” value is recorded as 0.23. Regarding `CC(C)(C)NC(=O)[C@H]1CC[C@H]2[C@@H]3CC=C4C=C(C(=O)O)CC[C@]4(C)[C@H]3CC[C@]12C` [Epristeride], under setting [2], the “PPB (fb)” value is 0.97. Regarding acenocoumarol, the “PPB (fb)” value (plasma) is listed as 0.98.

On to `CO[C@]12C[C@@H](COC(=O)c3cncc(Br)c3)CN(C)[C@@H]1Cc1cn(C)c3cccc2c13` [nicergoline], for which the “PPB (fb)” value under setting [1] is 0.95.
